This passage reports melting point results from patent publication US20080275093A1, “Diuretic Compounds Comprising Heterocyclic Nitric Oxide Donor Groups, Compositions and Methods of Use” (NitroMed, Inc., priority 2004, published 2008).

Molecule `Cc1c(COC(=O)c2cc(S(N)(=O)=O)c(Cl)cc2N)no[n+]1[O-]` [Example 3, Benzoic acid, 2-amino-5-(aminosulfonyl)-4-chloro-, (4-methyl-5-oxido-1,2,5-oxadiazol-3-yl)methyl ester] came in with a melting point of 169 to 172 °C. Turning to `Cc1c(COC(=O)COC(=O)c2cc(S(N)(=O)=O)c(Cl)cc2NCc2ccco2)no[n+]1[O-]` [Example 2, Benzoic acid, 5-(aminosulfonyl)-4-chloro-2-[(2-furanylmethyl)amino]-, 2-[(4-methyl-5-oxido-1,2,5-oxadiazol-3-yl)methoxy]-2-oxoethyl ester], the melting point lay within 112 to 115 °C. Next, `Cc1c(COC(=O)c2cc(S(N)(=O)=O)c(Cl)cc2NCc2ccco2)no[n+]1[O-]` [Example 1, Benzoic acid, 5-(aminosulfonyl)-4-chloro-2-[(2-furanylmethyl)amino]-, (4-methyl-5-oxido-1,2,5-oxadiazol-3-yl)methyl ester]: 182 to 183 °C.

Usually melting point stands for the temperature of the solid-liquid transition.
